In BindingDB's records for doi:10.1021/jm950807f (University of Minnesota, 1996):
pKi: −log10 of the molar value.

Assay: Binding affinity against Delta Opioid receptor in Guinea pig brain membranes

SMILES: NC1=NC([C@]2(N)CC[C@@]3(O)[C@H]4Cc5ccc(O)c6c5C3(CCN4CC3CC3)[C@H]2O6)=N[C@]12CC[C@@]1(O)[C@H]3Cc4ccc(O)c5c4C1(CCN3CC1CC1)[C@H]2O5 [5-amino-2,4(Bis-4-cyclopropylmethyl-10,17-dihydroxy-(1S,5R,13R,17S)-12-oxa-4-azapentacyclo[9.6.1.01,13.05,17.07,18]octadeca-7(18),8,10-trien-14-one) imidazole]
- pKi: 6.74

SMILES: N[C@@]1(C2=N[C@]3(CC[C@@]4(O)[C@H]5Cc6ccc(O)c7c6C4(CCN5CC4CC4)[C@H]3O7)C(=O)N2)CC[C@@]2(O)[C@H]3Cc4ccc(O)c5c4C2(CCN3CC2CC2)[C@H]1O5 [(4S,5'R,13'R,17'S)-2-[(5R,13R,14R,17S)-14-amino-4-(cyclopropylmethyl)-10,17-dihydroxy-12-oxa-4-azapentacyclo[9.6.1.0^{1,13}.0^{5,17}.0^{7,18}]octadeca-7(18),8,10-trien-14-yl]-4'-(cyclopropylmethyl)-10',17'-dihydroxy-3,5-dihydro-12'-oxa-4'-azaspiro[imidazole-4,14'-pentacyclo[9.6.1.0^{1,13}.0^{5,17}.0^{7,18}]octadecane]-7',9',11'(18')-trien-5-one]
- pKi: 8.91
